Consider 33 compounds from US8889676B2, “3-ureidoisoquinolin-8-yl derivatives” (Actelion Pharmaceuticals Ltd., priority 2011, dated 2014).

≈ marks a conversion by molar mass, not a printed value.

In the first assay the test system is S. pneumoniae ATCC 49619. As to the kind of experiment: Minimal inhibitory concentration (MIC) by broth microdilution (CLSI M7-A7). The note with it: Streptococcus pneumoniae, ATCC49619; cation-adjusted Mueller Hinton Broth supplemented with 3% (v/v) lysed horse blood; microdilution method. It counts as cell-based, Streptococcus pneumoniae. Summed up: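 Broth microdilution per CLSI M7-A7 in cation-adjusted Mueller-Hinton broth with 3% (v/v) lysed horse blood for S. pneumoniae. MIC in mg/l.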
On the technique in general: Broth dilution looks for growth in wells or tubes with falling amounts of substance.
The MIC is the lowest concentration found to suppress growth. `CCNC(=O)Nc1cc2c(-c3ccncc3)ccc(CNC(=O)OCCCN3CCOCC3)c2cn1` [Example 110, [3-(3-ethyl-ureido)-5-pyridin-4-yl-isoquinolin-8-ylmethyl]-carbamic acid 3-morpholin-4-yl-propyl ester] showed an MIC of 2 µg/mL (≈ 4.06 µM).

`CCNC(=O)Nc1cc2c(Cl)ccc(CNC(=O)OCCOC)c2cn1` [Example 111, [5-chloro-3-(3-ethyl-ureido)-isoquinolin-8-ylmethyl]-carbamic acid 2-methoxy-ethyl ester]: the MIC worked out at 0.5 µg/mL (≈ 1.31 µM).

On to `C#CCOC(=O)NCc1ccc(Cl)c2cc(NC(=O)NCC)ncc12` [Example 112, [5-chloro-3-(3-ethyl-ureido)-isoquinolin-8-ylmethyl]-carbamic acid prop-2-ynyl ester], for which the lowest concentration to inhibit growth (MIC) was 0.5 µg/mL (≈ 1.39 µM).

Regarding `CCNC(=O)Nc1cc2c(Cl)ccc(CNC(=O)OC(C)(C)C)c2cn1` [Example 113, [5-chloro-3-(3-ethyl-ureido)-isoquinolin-8-ylmethyl]-carbamic acid tert-butyl ester], 1 µg/mL (≈ 2.64 µM) was the least that counted as inhibitory (MIC).

Consider `CCNC(=O)Nc1cc2c(-c3ccncc3)ccc(CNC(=O)OCCOC)c2cn1` [Example 114, [3-(3-ethyl-ureido)-5-pyridin-4-yl-isoquinolin-8-ylmethyl]-carbamic acid 2-methoxy-ethyl ester], for which the lowest concentration to inhibit growth (MIC) was 0.5 µg/mL (≈ 1.18 µM).

For `CCNC(=O)Nc1cc2c(-c3ccnc(N)c3)ccc(CNC(=O)OCCOC)c2cn1` [Example 115, [5-(2-amino-pyridin-4-yl)-3-(3-ethyl-ureido)-isoquinolin-8-ylmethyl]-carbamic acid 2-methoxy-ethyl ester], the minimum inhibitory concentration (MIC) came out at 2 µg/mL (≈ 4.56 µM).

On to `CCNC(=O)Nc1cc2c(-c3cc(C)nc(C)c3)ccc(CNC(=O)OCCOC)c2cn1` [Example 116, [5-(2,6-dimethyl-pyridin-4-yl)-3-(3-ethyl-ureido)-isoquinolin-8-ylmethyl]-carbamic acid 2-methoxy-ethyl ester], for which the MIC turned out to be 1 µg/mL (≈ 2.21 µM).

Regarding `CCNC(=O)Nc1cc2c(-c3ccnc(OC)c3)ccc(CNC(=O)OCCOC)c2cn1` [Example 117, [3-(3-ethyl-ureido)-5-(2-methoxy-pyridin-4-yl)-isoquinolin-8-ylmethyl]-carbamic acid 2-methoxy-ethyl ester], the MIC was 1 µg/mL (≈ 2.21 µM).

`CCNC(=O)Nc1cc2c(-c3ccnc(F)c3)ccc(CNC(=O)OCCOC)c2cn1` [Example 118, [3-(3-ethyl-ureido)-5-(2-fluoro-pyridin-4-yl)-isoquinolin-8-ylmethyl]-carbamic acid 2-methoxy-ethyl ester] returned an MIC of 0.5 µg/mL (≈ 1.13 µM).

Regarding `CCNC(=O)Nc1cc2c(-c3ccnc(C)c3)ccc(CNC(=O)OCCOC)c2cn1` [Example 119, [3-(3-ethyl-ureido)-5-(2-methyl-pyridin-4-yl)-isoquinolin-8-ylmethyl]-carbamic acid 2-methoxy-ethyl ester], the MIC was found to be 0.5 µg/mL (≈ 1.14 µM).

On to `CCNC(=O)Nc1cc2c(-c3ccnc(C#N)c3)ccc(CNC(=O)OCCOC)c2cn1` [Example 120, [5-(2-cyano-pyridin-4-yl)-3-(3-ethyl-ureido)-isoquinolin-8-ylmethyl]-carbamic acid 2-methoxy-ethyl ester], for which inhibition of growth (MIC) required 1 µg/mL (≈ 2.23 µM).

`CCNC(=O)Nc1cc2c(-c3ccncc3C)ccc(CNC(=O)OCCOC)c2cn1` [Example 121, [3-(3-ethyl-ureido)-5-(3-methyl-pyridin-4-yl)-isoquinolin-8-ylmethyl]-carbamic acid 2-methoxy-ethyl ester] displayed an MIC of 1 µg/mL (≈ 2.29 µM).

For the compound `CCNC(=O)Nc1cc2c(-c3ccnc(CO)c3)ccc(CNC(=O)OCCOC)c2cn1` [Example 122, [3-(3-ethyl-ureido)-5-(2-hydroxymethyl-pyridin-4-yl)-isoquinolin-8-ylmethyl]-carbamic acid 2-methoxy-ethyl ester], 4 µg/mL (≈ 8.82 µM) was the least that counted as inhibitory (MIC).

`CCNC(=O)Nc1cc2c(-c3ccnnc3)ccc(CNC(=O)OC(C)(C)C)c2cn1` [Example 124, [3-(3-ethyl-ureido)-5-pyridazin-4-yl-isoquinolin-8-ylmethyl]-carbamic acid tert-butyl ester] yielded an MIC of 0.5 µg/mL (≈ 1.18 µM).

As for `C#CCOC(=O)NCc1ccc(-c2cccnc2)c2cc(NC(=O)NCC)ncc12.Cl` [Example 125, [3-(3-ethyl-ureido)-5-pyridin-3-yl-isoquinolin-8-ylmethyl]-carbamic acid prop-2-ynyl ester hydrochloride], inhibition of growth (MIC) required 1 µg/mL.

In the case of `C#CCOC(=O)NCc1ccc(-c2ccncc2C)c2cc(NC(=O)NCC)ncc12` [Example 126, [3-(3-ethyl-ureido)-5-(3-methyl-pyridin-4-yl)-isoquinolin-8-ylmethyl]-carbamic acid prop-2-ynyl ester], inhibition of growth (MIC) required 1 µg/mL (≈ 2.4 µM).

As for `C#CCOC(=O)NCc1ccc(-c2ccnnc2)c2cc(NC(=O)NCC)ncc12` [Example 127, [3-(3-ethyl-ureido)-5-pyridazin-4-yl-isoquinolin-8-ylmethyl]-carbamic acid prop-2-ynyl ester], the lowest concentration to inhibit growth (MIC) was 8 µg/mL (≈ 19.8 µM).

`C#CCOC(=O)NCc1ccc(-c2ccnc(C#N)c2)c2cc(NC(=O)NCC)ncc12` [Example 128, [5-(2-cyano-pyridin-4-yl)-3-(3-ethyl-ureido)-isoquinolin-8-ylmethyl]-carbamic acid prop-2-ynyl ester] returned an MIC of 1 µg/mL (≈ 2.33 µM).

Take `C#CC(=O)NCc1ccc(-c2ccnnc2)c2cc(NC(=O)NCC)ncc12` [Example 129, propynoic acid [3-(3-ethyl-ureido)-5-pyridazin-4-yl-isoquinolin-8-ylmethyl]-amide]: the MIC amounted to 0.5 µg/mL (≈ 1.34 µM).

As to `CCNC(=O)Nc1cc2c(-c3ccncc3)ccc(CNC(=O)CCC3CC3)c2cn1` [Example 130, 3-cyclopropyl-N-[3-(3-ethyl-ureido)-5-pyridin-4-yl-isoquinolin-8-ylmethyl]-propionamide], the lowest concentration to inhibit growth (MIC) was 0.5 µg/mL (≈ 1.2 µM).

`C#CCOC(=O)NCc1ccc(-c2ccc(N)nc2)c2cc(NC(=O)NCC)ncc12.Cl` [Example 131, [5-(6-amino-pyridin-3-yl)-3-(3-ethyl-ureido)-isoquinolin-8-ylmethyl]-carbamic acid prop-2-ynyl ester hydrochloride] showed an MIC of 0.5 µg/mL.

In turn, `C#CCOC(=O)NCc1ccc(-c2cccc(CNC(C)=O)c2)c2cc(NC(=O)NCC)ncc12.Cl` [Example 132, {5-[3-(acetylamino-methyl)-phenyl]-3-(3-ethyl-ureido)-isoquinolin-8-ylmethyl}-carbamic acid prop-2-ynyl ester hydrochloride] showed an MIC of 4 µg/mL.

With `C#CCOC(=O)NCc1ccc(-c2cccc(O)c2)c2cc(NC(=O)NCC)ncc12.Cl` [Example 133, [3-(3-ethyl-ureido)-5-(3-hydroxy-phenyl)-isoquinolin-8-ylmethyl]-carbamic acid prop-2-ynyl ester hydrochloride], the MIC turned out to be 0.5 µg/mL.

In turn, `C#CCOC(=O)NCc1ccc(-c2cccc(CC(=O)O)c2)c2cc(NC(=O)NCC)ncc12.Cl` [Example 135, {3-[3-(3-ethyl-ureido)-8-(prop-2-ynyloxycarbonylamino-methyl)-isoquinolin-5-yl]-phenyl}-acetic acid hydrochloride] yielded an MIC of 4 µg/mL.

`C#CCOC(=O)NCc1ccc(-c2cccc(C(N)=O)c2)c2cc(NC(=O)NCC)ncc12.Cl` [Example 136, [5-(3-carbamoyl-phenyl)-3-(3-ethyl-ureido)-isoquinolin-8-ylmethyl]-carbamic acid prop-2-ynyl ester hydrochloride]: the MIC worked out at 2 µg/mL.

`C#CCOC(=O)NCc1ccc(-c2ccc(C(=O)O)cc2)c2cc(NC(=O)NCC)ncc12.Cl` [Example 137, 4-[3-(3-ethyl-ureido)-8-(prop-2-ynyloxycarbonylamino-methyl)-isoquinolin-5-yl]-benzoic acid hydrochloride] yielded an MIC of 0.25 µg/mL.

Compound `C#CCOC(=O)NCc1ccc(-c2ccc(O)cc2)c2cc(NC(=O)NCC)ncc12.Cl` [Example 138, [3-(3-ethyl-ureido)-5-(4-hydroxy-phenyl)-isoquinolin-8-ylmethyl]-carbamic acid prop-2-ynyl ester hydrochloride] yielded an MIC of 0.5 µg/mL.

Turning to `C#CCOC(=O)NCc1ccc(-c2ccccc2O)c2cc(NC(=O)NCC)ncc12.Cl` [Example 139, [3-(3-ethyl-ureido)-5-(2-hydroxy-phenyl)-isoquinolin-8-ylmethyl]-carbamic acid prop-2-ynyl ester hydrochloride], inhibition of growth (MIC) required 1 µg/mL.

`C#CCOC(=O)NCc1ccc(-c2cncnc2)c2cc(NC(=O)NCC)ncc12.Cl` [Example 140, [3-(3-ethyl-ureido)-5-pyrimidin-5-yl-isoquinolin-8-ylmethyl]-carbamic acid prop-2-ynyl ester hydrochloride] registered a minimal inhibitory concentration (MIC) of 1 µg/mL.

As to `C#CCOC(=O)NCc1ccc(-c2ccc(C(N)=O)cc2)c2cc(NC(=O)NCC)ncc12.Cl` [Example 141, [5-(4-carbamoyl-phenyl)-3-(3-ethyl-ureido)-isoquinolin-8-ylmethyl]-carbamic acid prop-2-ynyl ester hydrochloride], the MIC turned out to be 0.25 µg/mL.

Consider `C#CCOC(=O)NCc1ccc(-c2ccc(CO)nc2)c2cc(NC(=O)NCC)ncc12.Cl` [Example 142, [3-(3-ethyl-ureido)-5-(6-hydroxymethyl-pyridin-3-yl)-isoquinolin-8-ylmethyl]-carbamic acid prop-2-ynyl ester hydrochloride], for which the MIC turned out to be 1 µg/mL.

Consider `C#CCOC(=O)NCc1ccc(-c2ccc(CO)cc2)c2cc(NC(=O)NCC)ncc12.Cl` [Example 143, [3-(3-ethyl-ureido)-5-(4-hydroxymethyl-phenyl)-isoquinolin-8-ylmethyl]-carbamic acid prop-2-ynyl ester hydrochloride], for which the MIC was determined as 0.5 µg/mL.

Staying with this assay, now noted: cation-adjusted Mueller Hinton Broth supplemented with 3% (v/v) lysed horse blood; microdilution method.
`CCNC(=O)Nc1cc2c(-c3ccnc(CN4CCOCC4)c3)ccc(CNC(=O)OCCOC)c2cn1` [Example 123, {3-(3-ethyl-ureido)-5-[(2-morpholin-4-ylmethyl)-pyridin-4-yl]-isoquinolin-8-ylmethyl}-carbamic acid 2-methoxy-ethyl ester]: the “MIC for S. pneumoniae ATCC 49619” value came out at 8 µg/mL.
